According to patent US20190315878A1, “BISPECIFIC ANTIBODIES THAT MODULATE TLR-4 SIGNALING AND USES THEREOF” (ARGOS THERAPEUTICS INC., priority 2016, published 2019):

Columns and labels:
[1] = test system: stimulated PBMC cultures; assay: Cytokine secretion from stimulated PBMC cultures (Cytometric Bead Array); format: cell-based, human; settings: COX-2 inhibitor in combination with sCD83
Protocol: (§1) To evaluate cytokine secretion from stimulated PBMC cultures in response to sCD83 treatment, the supernatant was collected after culture and analyzed for human cytokines using the Cytometric Bead Array kit (BD® Biosciences) according to the manufacturer's instructions. Data were analyzed using the FCAP Array software (BD® Biosciences). PGE2 concentrations were measured using a competitive ELISA kit (Thermofisher).

[2] = test system: stimulated PBMC cultures; assay: PGE2 secretion from stimulated PBMC cultures (competitive ELISA); format: cell-based, human; settings: COX-2 inhibitor in combination with sCD83; FIG. 9E
Protocol: as §1

[3] = target: T1, MD-2 binding to sCD83-m3 (Homo sapiens, UniProt Q9Y6Y9); assay: LPS derivatives pre-incubated with MD-2; loss of MD-2 binding to sCD83 (cell free ELISA); settings: for % inhibition of MD-2 binding to sCD83-m3: LPS derivatives pre-incubated with MD-2, cell free ELISA; for blocking of MD-2 binding to sCD83: FIG. 6B
T1 sequence (Q9Y6Y9 17-160 limits assumed): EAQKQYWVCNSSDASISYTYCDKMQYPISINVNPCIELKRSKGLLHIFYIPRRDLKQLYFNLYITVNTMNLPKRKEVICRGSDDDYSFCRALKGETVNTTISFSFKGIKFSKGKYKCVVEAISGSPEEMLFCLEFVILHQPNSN
Protocol: sCD83 was prepared at 1 μg/mL in Coating Buffer (BD® Bioscience OptEIA ELISA Reagent Set B) and incubated overnight at 4° C. Plates were washed with wash buffer (PBS with 0.05% Tween 20, BD® Bioscience OptEIA Reagent Set B) three times using an ELx405 auto plate washer and then 300 μl of blocking buffer (1% BSA in PBS) was added to each well. The plates were then incubated for 2 hours at 37° C. to block and then washed three times with wash buffer. The protein of interest (MD-2, CD14, MD-2+LPS, or LPS) (R&D Systems®, Inc., Sigma) was serially diluted in seven tubes, and then 100 μl of the diluted protein samples were transferred to the appropriate wells on the capture plate. The plates were then incubated for 1 hour at room temperature in the dark. Plates were washed and goat anti-human biotinylated CD83 detection antibody (R&D Systems®, Inc.) was added at 100 μl/well and incubated for 2 hours at room temperature in the dark. The plates were then washed, and streptavidin-HRP was prepared at a 1:1000 dilution and added at 100 μl/well. The plates were incubated for 1 hour at room temperature in the dark and then washed, and development solution was prepared by combining equal parts of Substrate A plus Substrate B (BD® OptEIA ELISA Reagent Set B) and added to the plates (100 μl/well). The plates were allowed to develop for 1-10 minutes and the reaction was stopped by adding 50 μl/well of stop solution (BD® OptEIA reagents set B). The plates were analyzed on a ELx800 universal microplate reader at 450 nm.
In order to map the sCD83 binding site on MD-2, recombinant MD-2 protein was pre-incubated with each of several LPS derivatives prior to being added to plates coated with sCD83 protein. […] If MD-2 bound to LPS or the LPS derivatives blocked sCD83 binding, the interaction of sCD83 with MD-2 may mimic antagonist regulation of TLR signaling.

[4] = test system: IRAK-1; assay: Western blotting of GM-CSF-cultured monocytes; format: cell-based, human; settings: 60 minutes; 25 μg/ml sCD83 or 100 ng/ml LPS; FIG. 7A
Protocol: Monocytes were isolated from PBMC using negative selection (Stemcell) and cultured in R-10 medium ((10% fetal bovine serum (FBS; Atlanta Biologicals), Roswell Park Memorial Institute-1640 (supplemented with 10 mM 4-2-hydroxyethyl-1-piperazineethanesulfonic acid pH 7.4, 1 mM sodium pyruvate, 0.1 mM nonessential amino acids, 2 mM sodium glutamate, and […] 2-mercaptoethanol; Invitrogen® Corp.)) with GM-CSF overnight. sCD83 or LPS was then added for the indicated time points. Cells were lysed in ice cold RIPA buffer in the presence of a protease/phosphatase inhibitor cocktail ([…]). Bradford (BCA) protein assay (Thermo Scientific) was performed to determine total protein concentrations. 4-5 μg of each lysate sample was run on each lane of a Criterion 10-20% Tris-HCL gel at 200V for 50 minutes. The gel was transferred to PVDF membrane at 100V for 75 minutes. […]
The inventors studied the expression of IRAK proteins in the presence of sCD83. […] IRAK-1 protein was detected in untreated cultures and LPS-treated cultures, in contrast to cultures treated with sCD83 (FIG. 7A). Furthermore, no change in IRAK-2, IRAK-4, and IRAK-M protein levels was detected when cells were treated with sCD83 for 60 minutes.

[5] = test system: sCD83-m3 binding on monocytes; assay: Antibody blocking of sCD83-m3 binding to PBMCs / monocytes (Example 2); parameters: species or system human; settings: post-thaw PBMCs
Protocol: For antibody blocking experiments, cells were pre-incubated with the indicated purified antibodies to CD14 (clone M5E2, BD® Biosciences; clone 61D3, eBioscience® Corp.; clone My4, Beckman Coulter®, Inc.), to CD44s (clone 515, BD® Biosciences; clone 1M7, eBioscience® Corp.; and clone 156-3c11 and clone 5F12, Invitrogen® Corp.), to CD44v6 (clone VFF-7, eBiosciences® Corp.) to TLR4/MD-2 (clone MTS510, eBioscience® Corp.) or to MD-2 (clone 984, eBioscience® Corp.; clone 288307, R&D Systems®, Inc.) for 15 minutes at room temperature without washing prior to addition of sCD83 protein. Isotype control IgG1 and IgG2a antibodies were purchased from eBioscience® Corp.. Cells were washed with 2 mL BD® Stain Buffer (FBS) and incubated with 5 μl of Goat anti-human CD83 biotin (R&D Systems®, Inc.) for 15 minutes at room temperature. Cells were washed twice with 2 ml BD® Stain Buffer (FBS) and incubated with 20 μl of Streptavidin APC (BD® Biosciences) for 15 minutes at room temperature. Background staining was determined without the addition of sCD83 protein. […]

[6] = test system: IRAK-1; assay: IRAK assay of CD83 activity in macrophage cultures (Western blot); format: cell-based, human
Protocol: The IRAK Assay measures the rapid down-regulation of IRAK-1 protein by sCD83 in macrophage cultures. PBMCs were cultured in the presence of GM-CSF for 5 days. Macrophages were harvested and cultured overnight in media containing GM-CSF, then incubated in the presence or absence of a test antibody in 1 mL cultures for various times. Cell lysates were then used to prepare a Western blot and evaluated for IRAK expression as described in more detail in working Example 3.
One vial (2×10^8 total cells) of 2124557 PBMCs were thawed and cultured in T-150 flask with 1000 U/mL GM-CSF for 5 days. The macrophages were harvested, counted and resuspended at 1×10^6 cells/mL in R-10 media with GM-CSF and then cultured overnight. The cells were incubated with various preparations of sCD83 polypeptides, +/−25 μg/mL in 1 mL cultures for various times and then lysed in ice cold RIPA buffer with protease/phosphatase inhibitor cocktail. Bradford (BCA) protein assay was performed to determine total protein concentration.
4-5 μg of each lysate sample was run on a lane of a Criterion 10-20% Tris-HCL gel at 200V for 50 minutes. The gel was transferred to PVDF membrane at 100V for 75 minutes. […]

CS(=O)(=O)Nc1ccc([N+](=O)[O-])cc1OC1CCCCC1 [NS-398]
IL-6 secretion ([1]; FIG. 9C): marginal effect | sCD83 induced IL-10 secretion ([1]; FIG. 9D): suppressed sCD83 inducted IL-10 secretion | PGE2 production [2]: blocked PGE2 production

KDO-lipid A [KDO-Lipid A variant]
% inhibition of MD-2 binding to sCD83-m3 [3]: 93% | blocking of MD-2 binding to sCD83 ([3]; added first to sCD83 bound plates and washed prior to addition of MD-2 protein): no longer blocked MD-2 binding to sCD83 | blocking of MD-2 binding to sCD83 ([3]; pre-incubated with MD-2): prevented MD-2 binding to sCD83 | blocking of MD-2 binding to sCD83 ([3]; pre-incubated with MD-2, listed as KDO): blocks sCD83 binding to MD-2

diphosphoryl-Lipid A [Lipid A Diphos]
% inhibition of MD-2 binding to sCD83-m3 [3]: 19%

lipopolysaccharide [LPS]
% inhibition of MD-2 binding to sCD83-m3 [3]: 25% | IRAK-1 protein expression [4]: detected | % inhibition (relative to control) [5]: 5% | down-regulation of IRAK-1 protein in macrophage cultures [6]: does not have this effect | IRAK assay result ([6]; macrophages, 25 μg/mL): negative result

monophosphoryl-Lipid A [Lipid A Monophos]
% inhibition of MD-2 binding to sCD83-m3 [3]: 22%
